The values that follow are results of earlier work, collected in publication PMC8473701.

A short description of this data set: not told.
Regarding `CCC(C)C`, the “log partition aniline / water” value is reported as 2.880 log10 and the “log partition hexadecane / water” value was 3.76 log10.
Regarding `Cc1cnccn1`, the “log partition chloroform / water” value is 1.04 log10, the “log partition hexadecane / water” value was -0.79 log10 and the “log partition octanol / water” value was 0.23 log10.
Turning to `CCCl`, the “log partition aniline / water” value was 1.481 log10 and the “log partition hexadecane / water” value is listed as 1.22 log10.
Consider `COc1cccc(O)c1`, for which the “log partition chloroform / water” value was 0.77 log10, the “log partition hexadecane / water” value is recorded as -1.08 log10 and the “log partition octanol / water” value was 1.58 log10.
As to `CC(C)C`, the “log partition aniline / water” value was 2.488 log10 and the “log partition hexadecane / water” value is 3.11 log10.
Consider `ClCCl`, for which the “log partition 1-octanol / water” value is 1.25 log10, the “log partition aniline / water” value is given as 1.562 log10, the “log partition chloroform / water” value is 2.00 log10 and the “log partition hexadecane / water” value is on record as 1.06 log10. Further, the “log partition octanol / water” value was 1.25 log10.
Take `CC1CCCC1`: the “log partition 1-octanol / water” value is reported as 3.37 log10 and the “log partition hexadecane / water” value is on record as 3.99 log10.
